Experimental data reported in article PMC5218480 (PLoS ONE, 2017).

System: MV-4-11 cells
Assay: Gene expression microarray analysis (Affymetrix PrimeView) and GSEA
Format: cell-based, human
Parameters: RFU PODN (11730768_x_at) / Fold change /veh PODN (11730768_x_at) / RFU LINC00158 (11744669_a_at) / Fold change /veh LINC00158 (11744669_a_at) / RFU DUSP10 (11751237_a_at) / Fold change /veh DUSP10 (11751237_a_at) / RFU ID3 (11757404_x_at) / Fold change /veh ID3 (11757404_x_at) / RFU PLEKHG5 (11737974_s_at) / Fold change /veh PLEKHG5 (11737974_s_at) / RFU LRRC4B (11730491_at) / Fold change /veh LRRC4B (11730491_at) / RFU GIMAP4 (11747438_a_at) / Fold change /veh GIMAP4 (11747438_a_at) / RFU KRT8 (11758183_x_at) / Fold change /veh KRT8 (11758183_x_at) / RFU CNN1 (11734310_a_at) / Fold change /veh CNN1 (11734310_a_at) / RFU VPS37D (11726825_at) / Fold change /veh VPS37D (11726825_at) / RFU C10orf10 (11716522_x_at) / Fold change /veh C10orf10 (11716522_x_at) / RFU KIR2DL2 /// KIR2DL4 /// KIR2DL5A /// KIR2DL5B /// KIR2DS1 /// KIR2DS2 /// KIR2DS3 /// KIR2DS4 /// KIR3DL3 /// KIR3DL3 /// KIR3DS1 (11738374_at) / Fold change /veh KIR2DL2 /// KIR2DL4 /// KIR2DL5A /// KIR2DL5B /// KIR2DS1 /// KIR2DS2 /// KIR2DS3 /// KIR2DS4 /// KIR3DL3 /// KIR3DL3 /// KIR3DS1 (11738374_at) / RFU C1QL1 (11718748_at) / Fold change /veh C1QL1 (11718748_at) / RFU TMPRSS4 (11747572_a_at) / Fold change /veh TMPRSS4 (11747572_a_at) / RFU HAMP (11756126_x_at) / Fold change /veh HAMP (11756126_x_at) / RFU RNFT2 (11725882_a_at) / Fold change /veh RNFT2 (11725882_a_at) / RFU NR4A2 (11747474_a_at) / Fold change /veh NR4A2 (11747474_a_at) / RFU ABCC12 (11746883_a_at) / Fold change /veh ABCC12 (11746883_a_at) / RFU TMEM136 (11760407_x_at) / Fold change /veh TMEM136 (11760407_x_at) / RFU CLDN22 /// WWC2 (11732394_at) / Fold change /veh CLDN22 /// WWC2 (11732394_at) / RFU HLA-DPB1 (11760878_x_at) / Fold change /veh HLA-DPB1 (11760878_x_at) / RFU SPINT1 (11716480_a_at) / Fold change /veh SPINT1 (11716480_a_at) / RFU GAP43 (11754022_s_at) / Fold change /veh GAP43 (11754022_s_at) / RFU A4GNT (11735810_at) / Fold change /veh A4GNT (11735810_at) / RFU PRB3 (11715151_x_at) / Fold change /veh PRB3 (11715151_x_at) / RFU TUBB4B (11761932_at) / Fold change /veh TUBB4B (11761932_at) / RFU CAPN14 (11732068_a_at) / Fold change /veh CAPN14 (11732068_a_at) / RFU TMCC2 (11721928_a_at) / Fold change /veh TMCC2 (11721928_a_at) / RFU IRGQ (11745062_a_at) / Fold change /veh IRGQ (11745062_a_at) / RFU FAM174B (11720279_a_at) / Fold change /veh FAM174B (11720279_a_at) / RFU TMPRSS4 (11748680_a_at) / Fold change /veh TMPRSS4 (11748680_a_at) / RFU FAM212B (11763350_a_at) / Fold change /veh FAM212B (11763350_a_at) / RFU PLEKHG5 (11743358_a_at) / Fold change /veh PLEKHG5 (11743358_a_at) / RFU ZSCAN30 (11745921_a_at) / Fold change /veh ZSCAN30 (11745921_a_at) / RFU CMKLR1 (11741424_a_at) / Fold change /veh CMKLR1 (11741424_a_at) / RFU LOC101060620 /// MAPK8IP1 (11723275_at) / Fold change /veh LOC101060620 /// MAPK8IP1 (11723275_at) / RFU SPTSSB (11747773_x_at) / Fold change /veh SPTSSB (11747773_x_at) / RFU PRSS12 (11739890_at) / Fold change /veh PRSS12 (11739890_at) / RFU BIN1 (11741810_x_at) / Fold change /veh BIN1 (11741810_x_at) / RFU WNT11 (11732464_a_at) / Fold change /veh WNT11 (11732464_a_at) / RFU C10orf10 (11716521_a_at) / Fold change /veh C10orf10 (11716521_a_at) / RFU C5orf56 (11738089_at) / Fold change /veh C5orf56 (11738089_at) / RFU CYB561 (11721691_x_at) / Fold change /veh CYB561 (11721691_x_at) / RFU ANKRD19P (11752326_a_at) / Fold change /veh ANKRD19P (11752326_a_at) / RFU OR2T12 /// OR2T33 /// OR2T8 (11738714_s_at) / Fold change /veh OR2T12 /// OR2T33 /// OR2T8 (11738714_s_at) / RFU VCAN (11748164_a_at) / Fold change /veh VCAN (11748164_a_at) / RFU JSRP1 (11732532_at) / Fold change /veh JSRP1 (11732532_at) / RFU KRTAP10-11 (11738290_x_at) / Fold change /veh KRTAP10-11 (11738290_x_at) / RFU MYO3A (11730013_a_at) / Fold change /veh MYO3A (11730013_a_at) / RFU EBF3 (11725865_a_at) / Fold change /veh EBF3 (11725865_a_at) / RFU CAMK2N1 (11719241_x_at) / Fold change /veh CAMK2N1 (11719241_x_at) / RFU C5orf56 (11738088_a_at) / Fold change /veh C5orf56 (11738088_a_at) / RFU OLFML3 (11715873_a_at) / Fold change /veh OLFML3 (11715873_a_at) / RFU LOC100653217 /// NTM (11731650_a_at) / Fold change /veh LOC100653217 /// NTM (11731650_a_at) / RFU MAPK11 (11762145_a_at) / Fold change /veh MAPK11 (11762145_a_at) / RFU FIZ1 (11724087_x_at) / Fold change /veh FIZ1 (11724087_x_at) / RFU OASL (11726364_x_at) / Fold change /veh OASL (11726364_x_at) / RFU SOX15 (11748057_x_at) / Fold change /veh SOX15 (11748057_x_at) / RFU CD79A (11719716_a_at) / Fold change /veh CD79A (11719716_a_at) / RFU HIST1H1D (11736915_at) / Fold change /veh HIST1H1D (11736915_at) / RFU CASKIN2 (11723855_a_at) / Fold change /veh CASKIN2 (11723855_a_at) / RFU LOC730098 (11760151_x_at) / Fold change /veh LOC730098 (11760151_x_at) / RFU OR4N2 (11742367_at) / Fold change /veh OR4N2 (11742367_at) / RFU PRRT2 (11749266_a_at) / Fold change /veh PRRT2 (11749266_a_at) / RFU SNX32 (11753110_a_at) / Fold change /veh SNX32 (11753110_a_at) / RFU CDHR5 (11726645_a_at) / Fold change /veh CDHR5 (11726645_a_at) / RFU RCAN1 (11760418_a_at) / Fold change /veh RCAN1 (11760418_a_at) / RFU FAM167A (11723789_a_at) / Fold change /veh FAM167A (11723789_a_at) / RFU FAM26E (11764081_at) / Fold change /veh FAM26E (11764081_at) / RFU ISYNA1 (11749810_s_at) / Fold change /veh ISYNA1 (11749810_s_at) / RFU ACY1 (11761880_at) / Fold change /veh ACY1 (11761880_at) / RFU 11764098_at / Fold change /veh 11764098_at / RFU SAMD14 (11745864_x_at) / Fold change /veh SAMD14 (11745864_x_at) / RFU NPB (11741838_a_at) / Fold change /veh NPB (11741838_a_at) / RFU TMPRSS6 (11731388_a_at) / Fold change /veh TMPRSS6 (11731388_a_at) / RFU KRTAP10-2 (11738614_at) / Fold change /veh KRTAP10-2 (11738614_at) / RFU ARHGAP8 /// PRR5-ARHGAP8 (11727945_x_at) / Fold change /veh ARHGAP8 /// PRR5-ARHGAP8 (11727945_x_at) / RFU KRTAP5-7 /// NADSYN1 (11734609_at) / Fold change /veh KRTAP5-7 /// NADSYN1 (11734609_at) / RFU RASL12 (11751679_a_at) / Fold change /veh RASL12 (11751679_a_at) / RFU CDKN2B (11736163_a_at) / Fold change /veh CDKN2B (11736163_a_at) / RFU PRF1 (11729649_at) / Fold change /veh PRF1 (11729649_at) / RFU, ZNF638 /// ZNF638-IT1 / Fold change vs veh, ZNF638 /// ZNF638-IT1 / RFU, PANK3 / Fold change vs veh, PANK3 / RFU, SH3YL1 / Fold change vs veh, SH3YL1 / RFU, ZEB2 / Fold change vs veh, ZEB2 / RFU, NRIP1 / Fold change vs veh, NRIP1 / RFU, PTTG1IP / Fold change vs veh, PTTG1IP / RFU, CAPN2 / Fold change vs veh, CAPN2 / RFU, MED14 / Fold change vs veh, MED14 / RFU, SNORA58 / Fold change vs veh, SNORA58 / RFU, C1orf63 / Fold change vs veh, C1orf63 / RFU, LRRFIP1 / Fold change vs veh, LRRFIP1 / RFU, NDUFAF7 / Fold change vs veh, NDUFAF7 / RFU, SLC12A2 / Fold change vs veh, SLC12A2 / RFU, IBTK / Fold change vs veh, IBTK / RFU, ESF1 / Fold change vs veh, ESF1 / Fold change vs veh, TMEM50B / RFU, TAOK1 / Fold change vs veh, TAOK1 / RFU, ACBD3 / Fold change vs veh, ACBD3 / RFU, TMA16 / Fold change vs veh, TMA16 / RFU, RWDD3 / Fold change vs veh, RWDD3 / RFU, BCAT1 / Fold change vs veh, BCAT1 / RFU, EDEM3 / Fold change vs veh, EDEM3 / RFU, TMEM33 / Fold change vs veh, TMEM33 / RFU, WDR75 / Fold change vs veh, WDR75 / RFU, AHCTF1 / Fold change vs veh, AHCTF1 / RFU, TFRC / Fold change vs veh, TFRC / RFU, ZDHHC17 / Fold change vs veh, ZDHHC17 / RFU, NOM1 / Fold change vs veh, NOM1 / RFU, ARL8B / Fold change vs veh, ARL8B / RFU, ZBTB11 / Fold change vs veh, ZBTB11 / RFU, TAMM41 / Fold change vs veh, TAMM41 / RFU, KIAA1704 /// LOC100996395 / Fold change vs veh, KIAA1704 /// LOC100996395 / RFU, ING1 / Fold change vs veh, ING1 / RFU, TRMT61B / Fold change vs veh, TRMT61B / RFU, FUBP3 / Fold change vs veh, FUBP3 / RFU, TP53 / Fold change vs veh, TP53 / RFU, TNKS2 / Fold change vs veh, TNKS2 / RFU, ZFP14 / Fold change vs veh, ZFP14 / RFU, ACTR2 / Fold change vs veh, ACTR2 / RFU, PPP3R1 / Fold change vs veh, PPP3R1 / RFU, PIK3R1 / Fold change vs veh, PIK3R1 / RFU, HNRNPA1 / Fold change vs veh, HNRNPA1 / RFU, RNF170 / Fold change vs veh, RNF170 / RFU, ZNF28 / Fold change vs veh, ZNF28 / RFU, RNGTT / Fold change vs veh, RNGTT / RFU, OGT / Fold change vs veh, OGT / RFU, BRD1 / Fold change vs veh, BRD1 / RFU, MARS / Fold change vs veh, MARS / RFU, ZNF655 / Fold change vs veh, ZNF655 / RFU, FAHD1 / Fold change vs veh, FAHD1 / RFU, BDP1 / Fold change vs veh, BDP1 / RFU, LRRCC1 / Fold change vs veh, LRRCC1 / RFU, ARID1A / Fold change vs veh, ARID1A / RFU, ZNF146 / Fold change vs veh, ZNF146 / RFU, ZNF330 / Fold change vs veh, ZNF330 / RFU, GPN3 / Fold change vs veh, GPN3 / RFU, C9orf123 / Fold change vs veh, C9orf123 / RFU, N4BP2L2 / Fold change vs veh, N4BP2L2 / RFU, ARFIP1 / Fold change vs veh, ARFIP1 / RFU, FAM179B / Fold change vs veh, FAM179B / RFU, BCL10 / Fold change vs veh, BCL10 / RFU, UHRF1BP1L / Fold change vs veh, UHRF1BP1L / RFU, BET1 / Fold change vs veh, BET1 / RFU, CNOT2 / Fold change vs veh, CNOT2 / RFU, ZNF268 / Fold change vs veh, ZNF268 / Fold change vs veh, ZNF507 / RFU, DGCR2 / Fold change vs veh, DGCR2 / RFU, WDSUB1 / Fold change vs veh, WDSUB1 / Fold change vs veh, HSP90B1 /// MIR3652 / RFU, ADSS / Fold change vs veh, ADSS / RFU, GK / Fold change vs veh, GK / RFU, ZNF148 / Fold change vs veh, ZNF148 / RFU, TAF9 / Fold change vs veh, TAF9 / RFU, SLC1A5 / Fold change vs veh, SLC1A5 / RFU, SLMO2 / Fold change vs veh, SLMO2 / RFU, ABCC4 / Fold change vs veh, ABCC4 / RFU, LOC101060439 /// RAP1B / Fold change vs veh, LOC101060439 /// RAP1B / RFU, RFX7 / Fold change vs veh, RFX7 / RFU, GTPBP10 / Fold change vs veh, GTPBP10 / RFU, CNEP1R1 / Fold change vs veh, CNEP1R1 / RFU, BIVM-ERCC5 /// ERCC5 / Fold change vs veh, BIVM-ERCC5 /// ERCC5 / RFU, ILF3 / Fold change vs veh, ILF3 / RFU 11762660_at / Fold change /veh 11762660_at / RFU VCAN (11757783_s_at) / Fold change /veh VCAN (11757783_s_at) / RFU DDX43 (11728927_at) / Fold change /veh DDX43 (11728927_at) / RFU KRT8 (11758188_x_at) / Fold change /veh KRT8 (11758188_x_at) / RFU NKD1 (11759106_at) / Fold change /veh NKD1 (11759106_at) / RFU SRD5A1 (11742802_a_at) / Fold change /veh SRD5A1 (11742802_a_at) / RFU TPSAB1 /// TPSB2 (11721975_s_at) / Fold change /veh TPSAB1 /// TPSB2 (11721975_s_at) / RFU GSTM3 (11746129_a_at) / Fold change /veh GSTM3 (11746129_a_at) / RFU IL23R (11737362_x_at) / Fold change /veh IL23R (11737362_x_at) / RFU TMEM51 (11727254_a_at) / Fold change /veh TMEM51 (11727254_a_at) / RFU PIWIL2 (11732686_x_at) / Fold change /veh PIWIL2 (11732686_x_at) / RFU ORM1 (11744905_x_at) / Fold change /veh ORM1 (11744905_x_at) / RFU CCDC152 (11743942_at) / Fold change /veh CCDC152 (11743942_at) / RFU ECM1 (11717891_a_at) / Fold change /veh ECM1 (11717891_a_at) / RFU IL23R (11748794_a_at) / Fold change /veh IL23R (11748794_a_at) / RFU TNFAIP8L3 (11732012_x_at) / Fold change /veh TNFAIP8L3 (11732012_x_at) / RFU MBOAT4 (11741988_at) / Fold change /veh MBOAT4 (11741988_at) / RFU 11764193_at / Fold change /veh 11764193_at / RFU TMEM53 (11763286_at) / Fold change /veh TMEM53 (11763286_at) / RFU MAGEB2 (11727129_at) / Fold change /veh MAGEB2 (11727129_at) / RFU TMEM200A (11744735_a_at) / Fold change /veh TMEM200A (11744735_a_at) / RFU CCDC152 (11751479_a_at) / Fold change /veh CCDC152 (11751479_a_at) / RFU FAM211A (11726209_a_at) / Fold change /veh FAM211A (11726209_a_at) / RFU RGS16 (11746705_a_at) / Fold change /veh RGS16 (11746705_a_at) / RFU VCAN (11755009_s_at) / Fold change /veh VCAN (11755009_s_at) / RFU RHOB (11743442_s_at) / Fold change /veh RHOB (11743442_s_at) / RFU RGS16 (11720943_a_at) / Fold change /veh RGS16 (11720943_a_at) / RFU RGS16 (11720944_at) / Fold change /veh RGS16 (11720944_at) / RFU, VPS4B / Fold change vs veh, VPS4B / RFU, CREB1 / Fold change vs veh, CREB1 / RFU, DNAJC13 / Fold change vs veh, DNAJC13 / RFU, GNAQ / Fold change vs veh, GNAQ / RFU, CDK5R1 / Fold change vs veh, CDK5R1 / RFU, ZRANB3 / Fold change vs veh, ZRANB3 / RFU, CUL4A / Fold change vs veh, CUL4A / RFU, CCNY / Fold change vs veh, CCNY / RFU, UFL1 / Fold change vs veh, UFL1 / RFU, COG3 / Fold change vs veh, COG3 / RFU, DIAPH2 / Fold change vs veh, DIAPH2 / RFU, SKA2 / Fold change vs veh, SKA2 / RFU, AFF3 / Fold change vs veh, AFF3 / RFU, LMF1 / Fold change vs veh, LMF1 / RFU, IPO11 / Fold change vs veh, IPO11 / RFU, DFFB / Fold change vs veh, DFFB / RFU, FOXP1 / Fold change vs veh, FOXP1 / RFU, CARD8 / Fold change vs veh, CARD8 / RFU, STRN3 / Fold change vs veh, STRN3 / RFU, ADK / Fold change vs veh, ADK / RFU, RASSF2 / Fold change vs veh, RASSF2 / RFU, WIPF1 / Fold change vs veh, WIPF1 / RFU, LARP1B / Fold change vs veh, LARP1B / RFU, RASA1 / Fold change vs veh, RASA1 / RFU, RB1 / Fold change vs veh, RB1 / RFU, PPFIA1 / Fold change vs veh, PPFIA1 / RFU, MAT2A / Fold change vs veh, MAT2A / RFU, CCT5 / Fold change vs veh, CCT5 / RFU, WDR92 / Fold change vs veh, WDR92 / RFU, CUX1 / Fold change vs veh, CUX1 / RFU, TTC7A / Fold change vs veh, TTC7A / RFU, TMEM135 / Fold change vs veh, TMEM135 / RFU, DEPTOR / Fold change vs veh, DEPTOR / RFU, CPM / Fold change vs veh, CPM / RFU, DNAJB6 / Fold change vs veh, DNAJB6 / RFU, CACNA2D3 / Fold change vs veh, CACNA2D3 / RFU, DTX4 / Fold change vs veh, DTX4 / RFU, TFCP2 / Fold change vs veh, TFCP2 / RFU, GMCL1 /// GMCL1P1 / Fold change vs veh, GMCL1 /// GMCL1P1 / RFU, AEBP2 / Fold change vs veh, AEBP2 / RFU, SNHG1 /// SNORD22 /// SNORD25 /// SNORD26 /// SNORD27 /// SNORD28 /// SNORD29 /// SNORD31 / Fold change vs veh, SNHG1 /// SNORD22 /// SNORD25 /// SNORD26 /// SNORD27 /// SNORD28 /// SNORD29 /// SNORD31 / Fold change (Aza/veh), C12orf56 (ProbeSet 11735607_a_at) / Fold change (ACY-1035/veh), C12orf56 (ProbeSet 11735607_a_at) / Fold change (Aza/veh), FGFR1OP (ProbeSet 11751329_s_at) / Fold change (ACY-1035/veh), FGFR1OP (ProbeSet 11751329_s_at) / Fold change (Aza/veh), VPS36 (ProbeSet 11739960_a_at) / Fold change (ACY-1035/veh), VPS36 (ProbeSet 11739960_a_at) / RFU SYPL1 (11715823_x_at) / Fold change /veh SYPL1 (11715823_x_at) / RFU IGFBP7 (11715501_s_at) / Fold change /veh IGFBP7 (11715501_s_at) / RFU REEP3 (11722064_at) / Fold change /veh REEP3 (11722064_at) / RFU IGLL1 (11728026_x_at) / Fold change /veh IGLL1 (11728026_x_at): dose or concentration left out as unconfirmed
Details: ProbeSet 11717523_x_at; LIST B

Nc1ccc(-c2cccs2)cc1NC(=O)c1ccc2c(c1)cc(C1CC1)n2CCN1CCOCC1 [ACY-1035]
Fold change vs veh, TMEM50B: 0.88
